This note sets out measurements from patent publication US6833456B2, “Indolyl-urea derivatives of thienopyridines useful as antiangiogenic agents, and methods for their use” (Agouron Pharmaceuticals, Inc., priority 2002, dated 2004).

Values joined by “and” are separate entries in the source; they are usually repeats but may differ in a detail not shown here. Identical values can stand only once.

In one data set the test system is HUVEC. The data set is described as follows: bFGF HUVEC proliferation. Type of data set: cell-based, human. The conditions noted are these: bFGF stimulated HUVEC.
The nature of another data set: Mouse PK assay. Type of data set: in vivo, B6 female mice. The conditions noted are these: po; for AUC / Cmax: female, B6, mouse, plasma, 50 mg/kg; for Cmax: p.o., read-out: Mouse Cmax, po ng-h/mL. The essentials: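 Plasma levels were measured by HPLC with UV detection after acetonitrile precipitation, using extracted standards, in blood taken up to 4 h (0.5, 1, 2, 4 h) post-dose. Dosing: 50 mg/kg orally or intraperitoneally to two groups of four female B6 mice, vehicle PEG 400:acidified H2O 30:70 suspension.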

The target of a further data set is T1, KDR (VEGFR2) (Homo sapiens, UniProt P35968).
T1 construct: expressed in transfected cells; host or cells: porcine aorta endothelial (PAE) cells
T1 sequence (P35968 20-1356): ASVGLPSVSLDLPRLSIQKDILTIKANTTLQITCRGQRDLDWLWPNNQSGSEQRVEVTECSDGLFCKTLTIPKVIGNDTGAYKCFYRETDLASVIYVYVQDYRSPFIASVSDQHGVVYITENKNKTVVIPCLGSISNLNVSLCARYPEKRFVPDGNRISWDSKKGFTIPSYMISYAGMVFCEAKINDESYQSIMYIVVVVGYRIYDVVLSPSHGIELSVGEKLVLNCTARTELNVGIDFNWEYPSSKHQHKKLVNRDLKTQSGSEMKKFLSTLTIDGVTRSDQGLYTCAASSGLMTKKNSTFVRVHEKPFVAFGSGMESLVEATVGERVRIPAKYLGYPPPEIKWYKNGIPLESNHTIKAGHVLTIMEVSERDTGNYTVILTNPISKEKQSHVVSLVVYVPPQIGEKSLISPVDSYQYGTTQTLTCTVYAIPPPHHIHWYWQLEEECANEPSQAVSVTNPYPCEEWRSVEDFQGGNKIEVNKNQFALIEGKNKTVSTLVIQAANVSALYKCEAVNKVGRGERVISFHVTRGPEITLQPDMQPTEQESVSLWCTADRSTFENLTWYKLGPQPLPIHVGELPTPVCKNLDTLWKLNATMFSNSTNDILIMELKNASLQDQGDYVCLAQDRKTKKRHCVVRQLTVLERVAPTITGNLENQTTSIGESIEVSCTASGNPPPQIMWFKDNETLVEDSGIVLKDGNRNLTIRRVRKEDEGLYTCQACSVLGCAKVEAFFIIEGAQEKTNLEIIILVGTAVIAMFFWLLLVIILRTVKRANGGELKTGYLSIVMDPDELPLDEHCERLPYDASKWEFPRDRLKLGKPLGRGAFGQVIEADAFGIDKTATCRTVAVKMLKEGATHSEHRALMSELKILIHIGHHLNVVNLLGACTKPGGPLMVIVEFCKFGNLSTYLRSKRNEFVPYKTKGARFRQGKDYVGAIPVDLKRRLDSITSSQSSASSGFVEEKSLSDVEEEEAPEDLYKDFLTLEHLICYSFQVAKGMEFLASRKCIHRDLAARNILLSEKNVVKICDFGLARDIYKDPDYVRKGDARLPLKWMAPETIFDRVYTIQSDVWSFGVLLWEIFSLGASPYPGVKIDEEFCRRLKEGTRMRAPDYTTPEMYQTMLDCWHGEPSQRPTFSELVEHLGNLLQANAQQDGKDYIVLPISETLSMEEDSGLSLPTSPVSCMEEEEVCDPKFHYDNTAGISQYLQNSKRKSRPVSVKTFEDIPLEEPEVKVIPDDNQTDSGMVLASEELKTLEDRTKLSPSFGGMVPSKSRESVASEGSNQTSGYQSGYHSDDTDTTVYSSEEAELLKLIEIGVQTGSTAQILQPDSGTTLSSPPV
Kind of data set: KDR (VEGFR2) phosphorylation in PAE-KDR cells assay. Type of data set: cell-based. The conditions noted are these: PAE cells overexpressing human KDR, VEGF stimulated; read-out: PAE KDR autophos IC50. An outline of the steps: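 PAE cells overexpressing human KDR, serum-starved 16 h (0.1% FBS), treated with compound 1 h at 37° C (0.5% DMSO), then stimulated 8 min with 500 ng/ml VEGF plus 2 mM Na3VO4. Lysate KDR phosphotyrosine measured by capture ELISA (anti-pY HRP, 450 nm); IC50 by four-parameter fit.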

A further data set addresses T2, PDGFRβ (Homo sapiens, UniProt P09619).
T2 construct: expressed in transfected cells; host or cells: porcine aorta endothelial (PAE) cells
The data set is described as follows: PAE-PDGFRβ phosphorylation in PAE-PDGFRB cells assay. Type of data set: cell-based. To be noted: PAE cells overexpressing human PDGFRβ, PDGF-BB stimulated; read-out: PAE PDGFR autophos IC50. An outline of the steps: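 PAE cells overexpressing human PDGFRβ, serum-starved 16 h (0.1% FBS), compound 1 h at 37° C (0.5% DMSO), then 1 μg/mL PDGF-BB with 2 mM Na3VO4 for 8 min. Receptor captured by anti-PDGFRβ, phosphotyrosine detected by HRP-PY20/TMB at 450 nm; IC50 by four-parameter fit.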

T2 sequence (P09619 33-1106): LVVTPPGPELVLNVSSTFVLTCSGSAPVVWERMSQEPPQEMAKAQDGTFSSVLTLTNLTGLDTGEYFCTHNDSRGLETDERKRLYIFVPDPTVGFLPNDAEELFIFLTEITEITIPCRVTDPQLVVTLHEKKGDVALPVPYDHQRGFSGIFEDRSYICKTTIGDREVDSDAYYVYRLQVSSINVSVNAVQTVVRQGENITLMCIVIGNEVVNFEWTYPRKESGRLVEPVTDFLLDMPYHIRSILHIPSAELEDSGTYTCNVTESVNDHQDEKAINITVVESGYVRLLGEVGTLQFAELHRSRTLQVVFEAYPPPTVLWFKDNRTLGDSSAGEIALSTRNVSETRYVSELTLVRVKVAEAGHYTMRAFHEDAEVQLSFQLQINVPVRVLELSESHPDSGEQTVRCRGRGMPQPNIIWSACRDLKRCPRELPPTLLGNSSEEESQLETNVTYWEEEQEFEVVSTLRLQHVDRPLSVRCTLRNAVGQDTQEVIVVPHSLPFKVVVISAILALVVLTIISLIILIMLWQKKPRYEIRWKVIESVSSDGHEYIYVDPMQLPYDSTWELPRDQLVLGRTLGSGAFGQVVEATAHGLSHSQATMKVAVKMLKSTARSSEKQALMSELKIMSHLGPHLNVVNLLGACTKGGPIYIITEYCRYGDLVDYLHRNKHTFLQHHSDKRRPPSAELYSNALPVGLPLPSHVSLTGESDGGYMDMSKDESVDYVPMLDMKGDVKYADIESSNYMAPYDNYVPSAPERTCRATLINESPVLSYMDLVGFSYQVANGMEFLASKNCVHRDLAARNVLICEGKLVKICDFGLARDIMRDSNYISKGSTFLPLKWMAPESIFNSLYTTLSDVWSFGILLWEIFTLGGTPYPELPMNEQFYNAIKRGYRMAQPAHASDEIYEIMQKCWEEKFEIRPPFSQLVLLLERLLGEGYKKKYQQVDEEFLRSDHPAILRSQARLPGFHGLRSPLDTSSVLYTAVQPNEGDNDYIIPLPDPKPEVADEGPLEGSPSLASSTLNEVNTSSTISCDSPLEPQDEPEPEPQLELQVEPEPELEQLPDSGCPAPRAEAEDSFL

One may read the IC50 as the concentration needed to halve the response being measured. For orientation: AUC means the area under the concentration-time curve, a measure of exposure. The low end stands for low exposure, the high end for high exposure. In the data set on HUVEC (Homo sapiens, HUVEC), `COC[C@@H]1CCCN1C(=O)c1cc2nccc(Oc3ccc4c(c3)cc(C)n4C(=O)NC3CC3)c2s1` [Example 4b, 5-(2-[(S)-2-(methoxymethyl)pyrrolidine-1-carbonyl]thieno[3,2-b]pyridin-7-yloxy)-2-methylindole-1-carboxylic acid cyclopropylamide] gave an IC50 of 11.7 nM. In “Mouse PK assay”, the AUC was found to be 3640 ng·h/mL; the Cmax came out at 2110 ng/mL; the “Mouse Cmin, po” value came to 108 ng/mL. Further, the IC50 at KDR (VEGFR2) is 0.21 nM (2×) and 0.25 nM. For the same compound, the IC50 on PDGFRβ is 22 nM and 24 nM and 23 nM.
On to `CNC(=O)n1c(C)cc2cc(Oc3ccnc4cc(C(=O)N5CC[C@@H](OC)C5)sc34)ccc21` [Example 4j, 5-[2-(3R-Methoxy-pyrrolidine-1-carbonyl)-thieno[3,2-b]pyridin-7-yloxy]-2-methyl-indole-1-carboxylic acid methylamide], for which the IC50 in the data set with HUVEC (Homo sapiens, HUVEC) is 2.5 nM; with HUVEC, 4.7 nM; at KDR (VEGFR2) it was 0.86 nM and 0.35 nM and 0.34 nM; at PDGFRβ it was 10 nM and 13 nM. The compound further had an AUC in “Mouse PK assay” of 5080 ng·h/mL. For the same compound, the Cmax in “Mouse PK assay” is 3430 ng/mL. Moreover, the “Mouse Cmin, po” value in “Mouse PK assay” is reported as 32 ng/mL.
As for `C#CCNC(=O)n1c(C)cc2cc(Oc3ccnc4cc(C(=O)N5CC[C@@H](O)C5)sc34)ccc21` [Example 4o, 5-[2-(3R-Hydroxy-pyrrolidine-1-carbonyl)-thieno[3,2-b]pyridin-7-yloxy]-2-methyl-indole-1-carboxylic acid prop-2-ynylamide], the IC50 in the data set with HUVEC (Homo sapiens, HUVEC) came to 7.9 nM. Further, in the data set “Mouse PK assay”, the AUC was 28500 ng·h/mL; the Cmax was found to be 5070 ng/mL; the “Mouse Cmin, po” value is listed as 825 ng/mL. The IC50 on KDR (VEGFR2) is 0.012 nM and 0.009 nM. For the same compound, at PDGFRβ, the IC50 stood at 9 nM.
In the case of `CNC(=O)n1c(C)cc2c(F)c(Oc3ccnc4cc(C(=O)N5CCC[C@H]5CO)sc34)ccc21` [Example 5n, 4-Fluoro-5-[(2-{[(2S)-2-(hydroxymethyl)pyrrolidin-1-yl]carbonyl}thieno[3,2-b]pyridin-7-yl)oxy]-N,2-dimethyl-1H-indole-1-carboxamide], the IC50 was 93 nM in the data set with HUVEC (Homo sapiens, HUVEC); 0.28 nM and 0.5 nM and 0.53 nM at KDR (VEGFR2); 18.2 nM on PDGFRβ. Moreover, in “Mouse PK assay”, the AUC was found to be 2560 ng·h/mL. Also, in “Mouse PK assay”, the Cmax came out at 1820 ng/mL. In addition, the “Mouse Cmin, po” value in the data set “Mouse PK assay” came out at 47 ng/mL.
Consider `C#CCNC(=O)n1c(C)cc2cc(Oc3ccnc4cc(C(=O)N5CCC[C@@H]5CO)sc34)ccc21` [Example 8q, 5-[2-(2R-Hydroxymethyl-pyrrolidine-1-carbonyl)-thieno[3,2-b]pyridin-7-yloxy]-2-methyl-indole-1-carboxylic acid prop-2-ynylamide], for which the IC50 was 95 nM in the data set on HUVEC (Homo sapiens, HUVEC); 0.45 nM and 0.19 nM at KDR (VEGFR2); 29 nM and 13 nM on PDGFRβ. In “Mouse PK assay”, this compound displayed an AUC of 31300 ng·h/mL. The Cmax in “Mouse PK assay” was determined as 10400 ng/mL. Further, the “Mouse Cmin, po” value in “Mouse PK assay” was found to be 1297 ng/mL.
For `CNC(=O)n1c(C)cc2cc(Oc3ccnc4cc(C(=O)N5CC[C@H](O)C5)sc34)ccc21` [Example 9g, 5-[2-(3S-Hydroxy-pyrrolidine-1-carbonyl)-thieno[3,2-b]pyridin-7-yloxy]-2-methyl-indole-1-carboxylic acid methylamide], the IC50 is 45 nM in the data set on HUVEC (Homo sapiens, HUVEC); 40 nM in the data set on HUVEC; 0.29 nM and 0.86 nM and 0.34 nM on KDR (VEGFR2); 27 nM and 33 nM on PDGFRβ. This compound gave an AUC in the data set “Mouse PK assay” of 9530 ng·h/mL. Further, in the data set “Mouse PK assay”, the Cmax stood at 4540 ng/mL.
On to `CCCNC(=O)n1c(C)cc2cc(Oc3ccnc4cc(C(=O)N5CC[C@H](O)C5)sc34)ccc21` [Example 9i, 5-[2-(3S-Hydroxy-pyrrolidine-1-carbonyl)-thieno[3,2-b]pyridin-7-yloxy]-2-methyl-indole-1-carboxylic acid propylamide], for which the IC50 in the data set with HUVEC (Homo sapiens, HUVEC) is 5 nM. In addition, in the data set “Mouse PK assay”, the exposure (AUC) came to 9480 ng·h/mL; the Cmax turned out to be 2320 ng/mL; the “Mouse Cmin, po” value came out at 461 ng/mL. Also, the 50% inhibitory concentration (IC50) at KDR (VEGFR2) was found to be 0.33 nM. Also, the IC50 on PDGFRβ came out at 36 nM.
In the data set with HUVEC (Homo sapiens, HUVEC), `Cc1cc2cc(Oc3ccnc4cc(C(=O)N5CC[C@H](O)C5)sc34)ccc2n1C(=O)NCCCO` [Example 9l, 5-[2-(3S-Hydroxy-pyrrolidine-1-carbonyl)-thieno[3,2-b]pyridin-7-yloxy]-2-methyl-indole-1-carboxylic acid (3-hydroxy-propyl)-amide] yielded an IC50 of 37.6 nM. In “Mouse PK assay”, the AUC was determined as 138 ng·h/mL; the Cmax came out at 56 ng/mL; the “Mouse Cmin, po” value amounted to 4 ng/mL. For the same compound, at KDR (VEGFR2), the IC50 is 0.76 nM and 0.51 nM. Also, at PDGFRβ, the IC50 was 216 nM.
